Laboratory results taken from US4980377A, “1-(aminophenyl)-2-aminopropanone derivatives” (Laboratoire L. Lafon, priority 1984, dated 1990).
Entries after “also recorded” stand apart in the source; their conditions may differ. Where a name gives a salt, the structure may show the parent alone.

Legend:
mice [1] = assay: Overall behavior and reactivities in mice; format: in vivo, mouse; details: dose not stated
Protocol: (§1) In the neuropsychopharmacological study which follows, a solution of CRL 41 153 in distilled water (pH 1.5) was administered intraperitoneally in a volume of 20 ml/kg to male mice and 5 ml/kg to male rats.
(§2) Groups of three animals are observed before and then 0.25 hour, 0.50 hour, 1 hour, 2 hours, 3 hours and 24 hours after the administration of CRL 41 153.

rats [2] = assay: Overall behavior and reactivities in rats; format: in vivo, rat; details: dose not stated
Protocol: as §1, §2

mice [3] = assay: Interaction with apomorphine in mice; format: in vivo, mouse; details: i.p.
Protocol: Groups of 6 mice receive CRL 41 153 0.5 hour before the subcutaneous injection of 1 or 16 mg/kg of apomorphine.

rats [4] = assay: Interaction with apomorphine in rats; format: in vivo, rat; details: i.p.
Protocol: CRL 41 153 is administered to groups of 6 rats 0.5 hour before the subcutaneous injection of 0.5 mg/kg of apomorphine.

rats [5] = assay: Interaction with amphetamine; format: in vivo, rat; details: i.p.
Protocol: Amphetamine (2 mg/kg) is injected intraperitoneally into groups of 6 rats 30 minutes after the administration of CRL 41 153. […] 4 mg/kg and 16 mg/kg, CRL 41 153 potentiates the intensity and duration of the stereotypies induced by amphetamine.

mice [6] = assay: Interaction with reserpine; format: in vivo, mouse; details: i.p.
Protocol: Four hours after the intraperitoneal injection of 2.5 mg/kg of reserpine, groups of 6 mice receive CRL 41 153.

mice [7] = assay: Interaction with oxotremorine; format: in vivo, mouse; details: i.p.
Protocol: CRL 41 153 is administered to groups of 6 mice 0.5 hour before the intraperitoneal injection of 0.5 mg/kg of oxotremorine.

mice [8] = assay: Four plate test, traction and electric shock; format: in vivo, mouse; details: i.p.
Protocol: The test is performed on groups of 10 mice 30 minutes after the administration of CRL 41 153.

mice [9] = assay: Spontaneous motility; format: in vivo, mouse; details: i.p.
Protocol: 0.5 hour after they have received CRL 41 153, the mice (6 per dose, 12 control animals) are placed in an actimeter, where their motility is recorded for 30 minutes.

mice [10] = assay: Intergroup aggressiveness; format: in vivo, mouse; details: i.p.
Protocol: After they have stayed for 3 weeks in the two halves of a cage divided by an opaque partition, groups of 3 mice receive CRL 41 153. Half an hour later, the two groups from the same cage are brought together by removal of the partition, and the number of fights which occur in 10 minutes is noted.

mice [11] = assay: Motility reduced by habituation to the enclosure; format: in vivo, mouse; details: i.p.
Protocol: After they have stayed In the actimeters for 18 hours, (he mice (6 per dose, 12 control animals) receive CRL 41 153. They are immediately returned to their respective enclosures and, half an hour later, their motility is recorded for 30 minutes.

mice [12] = assay: Motility reduced by hypoxic aggression; format: in vivo, mouse; details: i.p.
Protocol: Half an hour after they have received CRL 41 153, the mice (10 per dose, 20 control animals) are subjected to acute hypobaric anoxia [pressure reduction of 600 mm Hg (i.e. about 8×10^4 Pa) in 90 seconds; release of vacuum in 45 seconds] and are then placed in an actimeter, where their motility is recorded for 10 minutes.

mice [13] = assay: Asphyxiant anoxia (gallamine triiodoethylate); format: in vivo, mouse; details: i.p., curarizing agent
Protocol: Groups of 10 mice receive CRL 41 153 half an hour before the intraperitoneal administration of 32 mg/kg of gallamine triiodoethylate (reference curarizing agent).

mice [14] = assay: Interaction with barbital; format: in vivo, mouse; details: i.p., barbital 220 mg/kg
Protocol: Half an hour after the administration of CRL 41 153, groups of 10 mice receive an intraperitoneal injection of barbital (220 mg/kg).

mice [15] = assay: Behavioral despair; format: in vivo, mouse; details: forcibly immersed mice, i.p.
Text: Half an hour after they have received CRL 41 153, groups of 6 mice are placed in a beaker filled with water to a height of 6 cm. The total period of immobility between the 2nd and 6th minutes following immersion is noted.

dogs = assay: Cardiovascular study in anesthetized dogs; format: in vivo, dog
Protocol: Two dogs (average weight: 14.1 kg), anesthetized with nembutal, receive CRL 41 194 by intraduodenal administration at successive doses of 0.1 mg/kg, 0.5 mg/kg, 1 mg/kg, 2.5 mg/kg, 5 mg/kg and 10 mg/kg (in solution in physiological solvent).
The blood pressure, the heart rate, the blood flow through the femoral artery, the blood flow through the vertebral artery and the rectal temperature are measured. The coloration of the skin and the coloration of the bile, collected by catheterization of the bile duct after ligature of the cystic duct, are observed.
4 dogs (average weight: 14 kg), anesthetized with nembutal, receive CRL 41 221 by intraduodenal administration at successive doses of 0.1 mg/kg, 0.5 mg/kg, 1 mg/kg, 2.5 mg/kg, 5 mg/kg and 10 mg/kg. The blood pressure, the heart rate, the blood flow through the femoral artery, the blood flow through the vertebral artery and the rectal temperature are measured. The coloration of the skin is observed.

[16] = tested on: gravid White New Zealand female rabbits; assay: Teratogenicity in gravid White New Zealand rabbits; format: in vivo, rabbit; details: day 5 to day 18 of gestation; for Affected foetuses, %: normal limit 1.5%
In short: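 Fetuses harvested by cesarean on gestation day 29 were scored for number and for any malformation (limb blockade, anury, tail or skull defects, exencephaly).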

[17] = pH of solutions in distilled water; format: physicochemical
Protocol: The neuropsychopharmacological study was undertaken according to the procedures described above for CRL 41 153, CRL 41 213 being adminstered intraperitoneally, in solution in distilled water, in a volume of 20 ml/kg to male mice and a volume of 5 ml/kg to male rats, and the pH of the injected solution varying with the concentration of CRL 41 213 according to the data given in Table II below.

CNS = assay: Neuropsychopharmacological profile as a whole; format: in vivo, mice and rats; details: conclusion of the tests
Protocol: as §1

immunity = assay: Immunological study (overall); details: in vivo; hydrochloride
[18] = anesthetized dogs, intraduodenal
[19] = dogs, after product, isoprenaline 3 μg/kg
[20] = dogs, after product, norepinephrine 2 μg/kg

## CC(C)NC(C)C(=O)c1ccc(N)c(Cl)c1 (centres unmarked) [CRL 41 221, 1-(4-amino-3-chlorophenyl)-2-isopropylaminopropanone hydrochloride]
Mice [1]
  Stereotype movements (summary): the presence of stereotype movements in mice and rats
Mice [1]; hydrochloride
  Overall behavior: observed effects (summary): excitation with hyperreactivity in mice and rats; also recorded: mydriasis and salivation in mice and rats
Rats [2]
  Stereotype movements (summary): the presence of stereotype movements in mice and rats
Rats [2]; hydrochloride
  Overall behavior: observed effects (summary): excitation with hyperreactivity in mice and rats; also recorded: mydriasis and salivation in mice and rats
Mice [3]
  Effect on hypothermia induced by apomorphine: antagonism of the hypothermia
Rats [4]
  Effect on stereotypies induced by apomorphine: potentiation of the stereotypies
Rats [5]
  Effect on stereotypies induced by amphetamine: potentiation of the stereotypies
Mice [6]
  Effect on hypothermia induced by reserpine: antagonism of the hypothermia
  Effect on ptosis induced by reserpine: a decrease in the ptosis induced by reserpine
Mice [7]
  Effect on hypothermic action of oxotremorine: antagonism of the hypothermia
Mice [8]
  Effect on convulsant effects of electric shock: a reduction in the convulsant effects of electric shock
  Number of punished passes in the four plate test: a moderate increase in the number of punished passes in the 4 plate test on mice (at a strong dose)
Mice [9]
  Spontaneous motor activity: an increase in the spontaneous motor activity of mice
Mice [10]
  Number of fights / intergroup aggressiveness: a reduction in the aggressiveness
Mice [11]
  Motor activity of mice accustomed to their enclosure: resumption in the motor activity of mice accustomed to their enclosure
Mice [12]
  Motor recovery of mice after hypobaric hypoxia: improvement in the motor recovery of mice subjected to acute hypoxia
Mice [13]
  Time taken for convulsions to occur: a reduction in the aggressiveness and (he time taken for convulsions and death to occur
  Time taken for death to occur: a reduction in the aggressiveness and (he time taken for convulsions and death to occur
Mice [14]
  Duration of the sleep induced by barbital: a reduction in the duration of the sleep induced by barbital
Mice [15]
  Period of immobility due to despair: a reduction in the period of immobility of mice which have been forcibly immersed
dogs; anesthetized dogs
  Effect on hypertension induced by norepinephrine: slightly reduced
  Effects of isoprenaline on the blood pressure: not modified as regards the diastolic blood pressure
  Rectal temperature: the rectal temperature and skin temperature rise gradually
  Skin temperature: the rectal temperature and skin temperature rise gradually
dogs; anesthetized dogs, after accumulated dose of 19.1 mg/kg intraduodenal
  Effects of isoprenaline on the heart rate: slightly reduced as regards the heart rate
dogs; [18]
  Blood pressure: A reduction in the diastolic blood pressure is observed at 5 mg/kg and hypotension appears at 10 mg/kg
  Femoral flow: tachycardiac effect as from 2.5 mg/kg, that the femoral flow increases substantially as from this same dose
  Heart rate: tachycardiac effect as from 2.5 mg/kg
  Respiration: the respiration is stimulated
  Vertebral flow: the vertebral flow increases at a dose of 0.5 mg/kg
dogs; anesthetized dogs, hydrochloride
  Effect of propanolol or atenolol on the action of the product: The injection of atenolol into 2 dogs reduces the effects of CRL 41 221; also recorded: the injection of propanolol does not increase the β^- effects
dogs; [19]
  Heart rate after isoprenaline: 262 beats/minute
  Heart rate before isoprenaline: 212 beats/minute
dogs; [20]
  Systolic blood pressure after norepinephrine: 266 mm Hg
  Systolic blood pressure before norepinephrine: 158 mm Hg
dogs; hydrochloride
  Vasodilator (conclusion): vasodiating properties; also recorded: consequently a vasodilator
[16]; 5 mg/kg daily
  Affected foetuses, number: 1
  Total foetuses (live): 91
  Affected foetuses, %: 1.11%
[16]; 10 mg/kg daily
  Affected foetuses, number: 1
  Total foetuses (live): 87
  Affected foetuses, %: 1.14%
[17]; 6 g/liter in distilled water
  pH: 5.0
[17]; 13 g/liter in distilled water
  pH: 4.5
[17]; 50 g/liter in distilled water
  pH: 4.0
[17]; ≤3 g/liter in distilled water
  pH: 5.5
CNS
  Antidepressant effects (overall): antidepressant properties
  Stimulant effects (overall): large stimulant component
  α-adrenergic stimulant effects (overall): an α-adrenergic stimulation component
immunity
  Immunological effect (overall): immunostimulant or immunomodulating effects; also recorded: has an immunomodulating effect and increases the cellular immunity
